# Experimental data reported in US10092589B2, “Anti-tumor agent containing anti-tumor platinum complex, and anti-tumor effect enhancer” (Taiho Pharmaceutical Company Limited, priority 2014, dated 2018).
# Marks after values point to notes of the source that are not given here.
# Assays:
# [1] = Carboplatin tolerability in mice with no cancer (Reference Example 3); type: in vivo, BALB/cA Jcl-nu mice; details: tail vein, Day 1
# Procedure: To BALB/cA Jcl-nu mice with no cancer (5 mice in each group), carboplatin (CBDCA) was administered at 50, 70, 100, 140, or 200 mg/kg/day through the tail vein on Day 1. In the groups treated with the doses of 140 mg/kg/day or more, strong body weight reductions of 20% or more and death cases were observed. The recommended dose of carboplatin for mice was thus 100 mg/kg/day.
# [2] = system: human lung cancer cell line (Lu-134); test: Lu-134 xenograft, FTD·TPI combination drug and carboplatin (Example 2); type: in vivo; details: Day 29, tail vein Day 1 and Day 8
# Procedure: (§1) As an index of the anti-tumor effect, the TVs on Days 5, 8, 11, 15, 19, 22, 26, and 29 were calculated in each group. In accordance with the following equation, the relative tumor volume (RTV) to that on Day 0 was calculated and compared with the RTV of the untreated group (control).
# (§2) The tumor growth inhibition rate (IR) on Day 29 on the basis of RTV values was calculated in accordance with the following equation. IR(%)=[1−(mean RTV value of treated group)/(mean RTV value of control group)]×100
# In a similar manner to that in Example 1, to BALB/cA Jcl-nu mice to which a human lung cancer cell line (Lu-134) had been transplanted, the FTD⋅TPI combination drug or carboplatin alone, or a combination of the two was administered, and enhancement of the anti-tumor effect was examined.
# (§3) The FTD⋅TPI combination drug (a mixture of FTD and TPI at a molar ratio of 1:0.5) was prepared for administration at doses of 75 and 150 mg/kg/day in terms of FTD. Carboplatin (Paraplatin inj., Bristol-Myers) was prepared for administration at doses of 50 and 100 mg/kg/day. The FTD⋅TPI combination drug was orally administered on Days 1 to 14 consecutively, and carboplatin was administered through the tail vein on Day 1 and Day 8. In the combination administration groups, the doses and administration schedules of the FTD⋅TPI combination drug and carboplatin were the same as those of the corresponding monotherapy groups. The TV and body weight of each group were measured on Days 4, 8, 11, 15, 19, 22, 26, and 29, and the anti-tumor effect and side effects were evaluated.
# [3] = Cisplatin tolerability (body weight) in KM20C-transplanted mice (Reference Example 2); type: in vivo, BALB/cA Jcl-nu mice
# Procedure: To BALB/cA Jcl-nu mice (8 mice in each group) to which a human colon cancer cell line KM20C had been transplanted, cisplatin was administered through the tail vein on Day 1 and Day 8. At a dose of 7 mg/kg/day, body weight reduction was 20% or less, and this dose was feasible. Accordingly, the recommended dose of cisplatin (CDDP) for mice was 7 mg/kg/day.
# [4] = system: human lung cancer cell line (Lu-134); test: Lu-134 xenograft, FTD·TPI combination drug and cisplatin (Example 1); type: in vivo; details: Day 29, tail vein Day 1 and Day 8
# Procedure: A human lung cancer cell line (Lu-134) was transplanted to the right chest of 5 to 6-week-old BALB/cA Jcl-nu mice. After the tumor transplantation, the long diameter (mm) and the short diameter (mm) of the tumor were measured, and the tumor volume (TV) was calculated.
# The FTD⋅TPI combination drug (a mixture of FTD and TPI at a molar ratio of 1:0.5) was prepared for administration at doses of 75 and 150 mg/kg/day in terms of FTD. Cisplatin (Randa inj., Nippon Kayaku Co., Ltd) was prepared for administration at doses of 3.5 and 7 mg/kg/day. The FTD⋅TPI combination drug was orally administered on Days 1 to 14 consecutively, and cisplatin was administered through the tail vein on Day 1 and Day 8. In the combination administration groups, the doses and administration schedules of the FTD⋅TPI combination drug and cisplatin were the same as those of the corresponding monotherapy groups.
# as §1
# TV(mm^3)=(long diameter×short diameter^2)/2 RTV=(TV on Day 29)/(TV on Day 0)
# as §2
# To evaluate body weight reduction as an index of side effects, body weights were measured in each group on each measurement day.
# [5] = Oxaliplatin tolerability in mice with no cancer (Reference Example 4); type: in vivo, BALB/cA Jcl-nu mice; details: tail vein, Day 1 and Day 8
# Procedure: To BALB/cA Jcl-nu mice with no cancer (4 mice in each group), oxaliplatin (l-OHP) was administered at 10, 12, 15, or 22.5 mg/kg/day through the tail vein on Day 1 and Day 8. In the groups treated with the doses of 15 mg/kg/day or more, strong body weight reductions of 20% or more were observed. The recommended dose of oxaliplatin for mice was thus 12 mg/kg/day.
# [6] = system: human colon cancer cell strain (KM20C); test: KM20C xenograft, FTD·TPI combination drug and oxaliplatin (Example 3-1); type: in vivo; details: Day 15, tail vein Day 1 and Day 8
# Procedure: as §1
# IR(%)=[1−(mean RTV value of treated group)/(mean RTV value of control group)]×100
# In a similar manner to that in Example 1, to BALB/cA Jcl-nu mice to which a human colon cancer cell strain (KM20C) had been transplanted, the FTD⋅TPI combination drug or oxaliplatin alone, or a combination of the two was administered, and enhancement of the anti-tumor effect was examined.
# as §3, with “FTD. Oxaliplatin (Eloxatin, Sanofi-Aventis)” for “FTD. Carboplatin (Paraplatin inj., Bristol-Myers)”, “of 6” for “of 50”, “and 12” for “and 100”, “and oxaliplatin” for “and carboplatin”, “4, 7, 10, and” for “4, 8, 11,”, “15,” for “15, 19, 22, 26, and 29,”
# [7] = system: human colon cancer cell strain (SW48); test: SW48 xenograft, FTD·TPI combination drug and oxaliplatin (Example 3-2); type: in vivo; details: tail vein Day 1 and Day 8; for IR (tumor growth inhibition rate) / RTV (mean ± SD): Day 29
# Procedure: In a similar manner to that in Example 1, to BALB/cA Jcl-nu mice to which a human colon cancer cell strain (SW48) had been transplanted, the FTD⋅TPI combination drug or oxaliplatin alone, or a combination of the two was administered, and enhancement of the anti-tumor effect was examined.
# (§4) The FTD⋅TPI combination drug (a mixture of FTD and TPI at a molar ratio of 1:0.5) was prepared for administration at a dose of 150 mg/kg/day in terms of FTD. Oxaliplatin (Eloxatin, Sanofi-Aventis) was prepared for administration at doses of 7 and 12 mg/kg/day. The FTD⋅TPI combination drug was orally administered on Days 1 to 14 consecutively, and oxaliplatin was administered through the tail vein on Day 1 and Day 8. In the combination administration groups, the doses and administration schedules of the FTD⋅TPI combination drug and oxaliplatin were the same as those of the corresponding monotherapy groups. The TV and body weight of each group were measured on Days 3, 7, 11, 15, 18, 22, 25, and 29, and the anti-tumor effect and side effects were evaluated.
# The number of days that elapsed until the tumor volume reached 5 times that on Day 0 (RTV5) was determined, and the growth delay effect was evaluated (Cancer Chemother Pharmacol 57: 709-718, 2006; Int J Radiat Oncol Biol Phys 86 (3): 469-76, 2013).
# [8] = system: human gastric cancer cell line (MKN74); test: MKN74 xenograft, FTD·TPI combination drug and oxaliplatin (Example 3-3); type: in vivo; details: tail vein Day 1 and Day 8; for IR (tumor growth inhibition rate) / RTV (mean ± SD): Day 29
# Procedure: (§5) In a similar manner to that in Example 1, to BALB/cA Jcl-nu mice to which a human gastric cancer cell line (MKN74) was transplanted, the FTD⋅TPI combination drug or oxaliplatin alone, or a combination of the two was administered, and enhancement of the anti-tumor effect was examined.
# as §4
# (§6) The number of days that elapsed until the tumor volume reached 5 times that on Day 0 (RTV5) was determined, and the growth delay effect was evaluated.
# [9] = system: human gastric cancer cell line (MKN74/5-FU), 5-FU resistant; test: MKN74/5-FU xenograft, FTD·TPI combination drug and oxaliplatin (Example 3-4); type: in vivo; details: tail vein Day 1 and Day 8; for IR (tumor growth inhibition rate) / RTV (mean ± SD): Day 29
# Procedure: as §5, with “(MKN74/5-FU) that is a 5-FU resistant cell line had been” for “(MKN74) was”
# as §4, §6
structure (smiles),measurement,setting,value
"N.N.O=C([O-])C1(C(=O)[O-])CCC1.[Pt+2] [Carboplatin (CBDCA), cis-diammine (1,1-cyclobutanedicarboxylato)-platinum (II)]",body weight reductions,[1]; doses of 140 mg/kg/day or more,≥ 20%
same,death,[1]; doses of 140 mg/kg/day or more,death cases
same,recommended dose for mice,[1],100 mg/kg/day
same,IR (tumor growth inhibition rate),[2]; 50 mg/kg/day,25.3%
same,RTV (mean ± SD),[2]; 50 mg/kg/day,26.86 ± 2.44
same,IR (tumor growth inhibition rate),[2]; 100 mg/kg/day,57.2%
same,RTV (mean ± SD),[2]; 100 mg/kg/day,15.40 ± 4.38
"N.N.[Cl][Pt][Cl] [Cisplatin (CDDP), (SP-4-2)-diamminedichloroplatinum]",body weight reduction,"[3]; 7 mg/kg/day, tail vein Day 1 and Day 8",≤ 20%
same,recommended dose for mice,"[3]; tail vein, Day 1 and Day 8",7 mg/kg/day
same,IR (tumor growth inhibition rate),[4]; 3.5 mg/kg/day,21.0%
same,RTV (mean ± SD),[4]; 3.5 mg/kg/day,29.12 ± 2.79
same,IR (tumor growth inhibition rate),[4]; 7.0 mg/kg/day,49.6%
same,RTV (mean ± SD),[4]; 7.0 mg/kg/day,18.56 ± 4.64
"O=C1[O][Pt]2([NH][C@@H]3CCCC[C@H]3[NH]2)[O]C1=O [Oxaliplatin (l-OHP), [(1R,2R)-cyclohexane-1,2-diamine](ethanedioato-O,O′)platinum(II)]",body weight reductions,[5]; doses of 15 mg/kg/day or more,≥ 20%
same,recommended dose for mice,[5],12 mg/kg/day
same,IR (tumor growth inhibition rate),[6]; 6 mg/kg/day,36.4%
same,RTV (mean ± SD),[6]; 6 mg/kg/day,6.99 ± 0.32
same,IR (tumor growth inhibition rate),[6]; 12 mg/kg/day,55.0%
same,RTV (mean ± SD),[6]; 12 mg/kg/day,4.94 ± 0.53
same,"RTV5 (the period, RTV reaches 5)",[7]; 7 mg/kg/day,8.9 ± 0.4 days
same,"RTV5 (the period, RTV reaches 5)",[7]; 12 mg/kg/day,10.0 ± 0.8^$ days
same,IR (tumor growth inhibition rate),[7]; 7 mg/kg/day,22.1%
same,RTV (mean ± SD),[7]; 7 mg/kg/day,47.63 ± 4.33
same,IR (tumor growth inhibition rate),[7]; 12 mg/kg/day,36.7%
same,RTV (mean ± SD),[7]; 12 mg/kg/day,"38.72 ± 3.69*^,#"
same,"RTV5 (the period, RTV reaches 5)",[8]; 7 mg/kg/day,15.8 ± 0.6^$ days
same,"RTV5 (the period, RTV reaches 5)",[8]; 12 mg/kg/day,18.5 ± 0.8^$ days
same,IR (tumor growth inhibition rate),[8]; 7 mg/kg/day,20.7%
same,RTV (mean ± SD),[8]; 7 mg/kg/day,12.67 ± 0.74
same,IR (tumor growth inhibition rate),[8]; 12 mg/kg/day,35.8%
same,RTV (mean ± SD),[8]; 12 mg/kg/day,10.25 ± 0.87
same,"RTV5 (the period, RTV reaches 5)",[9]; 7 mg/kg/day,18.6 ± 1.4^$ days
same,"RTV5 (the period, RTV reaches 5)",[9]; 12 mg/kg/day,20.1 ± 1.3^$ days
same,IR (tumor growth inhibition rate),[9]; 7 mg/kg/day,33.7%
same,RTV (mean ± SD),[9]; 7 mg/kg/day,11.23 ± 1.60
same,IR (tumor growth inhibition rate),[9]; 12 mg/kg/day,40.5%
same,RTV (mean ± SD),[9]; 12 mg/kg/day,10.08 ± 1.77
